Results reported in ChEMBL document CHEMBL5723584 (2023).

Experiments:
[1] = biological target: Receptor-type tyrosine-protein kinase FLT3 (Homo sapiens) (UniProt P36888); experiment: activity of Flt3(h) at 1.0 µM in the Eurofins Kinase panel; conditions: Compound concentration 1.0 uM
[2] = biological target: CDK3/Cyclin E (Homo sapiens) (UniProt P24864+Q00526); experiment: activity of CDK3/cyclinE(h) at 1.0 µM in the Eurofins Kinase panel; format: protein-complex assay; conditions: Compound concentration 1.0 uM
[3] = biological target: Tyrosine-protein kinase Yes (Homo sapiens) (UniProt P07947); experiment: activity of Yes(h) at 1.0 µM in the Eurofins Kinase panel; conditions: Compound concentration 1.0 uM
[4] = biological target: Myosin-IIIb (Homo sapiens) (UniProt Q8WXR4); experiment: activity of MYO3B(h) at 1.0 µM in the Eurofins Kinase panel; conditions: Compound concentration 1.0 uM
[5] = biological target: Serine/threonine-protein kinase 32B (Homo sapiens) (UniProt Q9NY57); experiment: activity of STK32B(h) at 1.0 µM in the Eurofins Kinase panel; conditions: Compound concentration 1.0 uM
[6] = biological target: Death-associated protein kinase 2 (Homo sapiens) (UniProt Q9UIK4); experiment: activity of DAPK2(h) at 1.0 µM in the Eurofins Kinase panel; conditions: Compound concentration 1.0 uM
[7] = biological target: Platelet-derived growth factor receptor beta (Homo sapiens) (UniProt P09619); experiment: activity of PDGFRbeta(h) at 1.0 µM in the Eurofins Kinase panel; conditions: Compound concentration 1.0 uM
[8] = biological target: PI3-kinase p110-delta/p85-alpha (Homo sapiens) (UniProt P27986+O00329); experiment: activity of PI3 Kinase (p110delta/p85alpha)(h) at 1.0 µM in the Eurofins Kinase panel; format: protein-complex assay; conditions: Compound concentration 1.0 uM
[9] = biological target: Testis-specific serine/threonine-protein kinase 4 (Homo sapiens) (UniProt Q6SA08); experiment: activity of TSSK4(h) at 1.0 µM in the Eurofins Kinase panel; conditions: Compound concentration 1.0 uM
[10] = biological target: Macrophage colony-stimulating factor 1 receptor (Homo sapiens) (UniProt P07333); experiment: activity of Fms(h) at 1.0 µM in the Eurofins Kinase panel; conditions: Compound concentration 1.0 uM
[11] = biological target: Protein kinase C gamma type (Homo sapiens) (UniProt P05129); experiment: activity of PKCgamma(h) at 1.0 µM in the Eurofins Kinase panel; conditions: Compound concentration 1.0 uM
[12] = biological target: RAC-alpha serine/threonine-protein kinase (Homo sapiens) (UniProt P31749); experiment: activity of PKBalpha(h) at 1.0 µM in the Eurofins Kinase panel; conditions: Compound concentration 1.0 uM
[13] = biological target: RAC-beta serine/threonine-protein kinase (Homo sapiens) (UniProt P31751); experiment: activity of PKBbeta(h) at 1.0 µM in the Eurofins Kinase panel; conditions: Compound concentration 1.0 uM
[14] = biological target: Serine/threonine-protein kinase tousled-like 1 (Homo sapiens) (UniProt Q9UKI8); experiment: activity of TLK1(h) at 1.0 µM in the Eurofins Kinase panel; conditions: Compound concentration 1.0 uM
[15] = biological target: Tyrosine-protein kinase Mer (Homo sapiens) (UniProt Q12866); experiment: activity of Mer(h) at 1.0 µM in the Eurofins Kinase panel; conditions: Compound concentration 1.0 uM
[16] = biological target: Serine/threonine-protein kinase DCLK3 (Homo sapiens) (UniProt Q9C098); experiment: activity of DCAMKL3(h) at 1.0 µM in the Eurofins Kinase panel; conditions: Compound concentration 1.0 uM
[17] = biological target: Mitogen-activated protein kinase kinase kinase kinase 5 (Homo sapiens) (UniProt Q9Y4K4); experiment: activity of MAP4K5(h) at 1.0 µM in the Eurofins Kinase panel; conditions: Compound concentration 1.0 uM
[18] = biological target: Eukaryotic translation initiation factor 2-alpha kinase 1 (Homo sapiens) (UniProt Q9BQI3); experiment: activity of HRI(h) at 1.0 µM in the Eurofins Kinase panel; conditions: Compound concentration 1.0 uM
[19] = biological target: CDK12/Cyclin K (Homo sapiens) (UniProt O75909+Q9NYV4); experiment: activity of CDK12/cyclinK(h) at 1.0 µM in the Eurofins Kinase panel; format: protein-complex assay; conditions: Compound concentration 1.0 uM
[20] = biological target: Angiopoietin-1 receptor (Homo sapiens) (UniProt Q02763); experiment: activity of Tie2(h) at 1.0 µM in the Eurofins Kinase panel; conditions: Compound concentration 1.0 uM
[21] = biological target: Phosphatidylinositol 4-phosphate 3-kinase C2 domain-containing subunit alpha (Homo sapiens) (UniProt O00443); experiment: activity of PI3KC2alpha(h) at 1.0 µM in the Eurofins Kinase panel; conditions: Compound concentration 1.0 uM
[22] = biological target: Tyrosine-protein kinase Lyn (Homo sapiens) (UniProt P07948); experiment: activity of Lyn(h) at 1.0 µM in the Eurofins Kinase panel; conditions: Compound concentration 1.0 uM
[23] = biological target: Serine/threonine-protein kinase WNK3 (Homo sapiens) (UniProt Q9BYP7); experiment: activity of WNK3(h) at 1.0 µM in the Eurofins Kinase panel; conditions: Compound concentration 1.0 uM
Aurora kinase B = Aurora kinase B (Homo sapiens, UniProt Q96GD4); experiment: activity of Aurora-B(h) at 1.0 µM in the Eurofins Kinase panel; conditions: Compound concentration 1.0 uM
[24] = biological target: TGF-beta receptor type-1 (Homo sapiens) (UniProt P36897); experiment: activity of TGFBR1(h) at 1.0 µM in the Eurofins Kinase panel; conditions: Compound concentration 1.0 uM
[25] = biological target: Ribosomal protein S6 kinase alpha-6 (Homo sapiens) (UniProt Q9UK32); experiment: activity of Rsk4(h) at 1.0 µM in the Eurofins Kinase panel; conditions: Compound concentration 1.0 uM
[26] = biological target: Vascular endothelial growth factor receptor 2 (Homo sapiens) (UniProt P35968); experiment: activity of KDR(h) at 1.0 µM in the Eurofins Kinase panel; conditions: Compound concentration 1.0 uM
[27] = biological target: Mitogen-activated protein kinase kinase kinase 7 (Homo sapiens) (UniProt O43318); experiment: activity of TAK1(h) at 1.0 µM in the Eurofins Kinase panel; conditions: Compound concentration 1.0 uM
[28] = biological target: Dual specificity mitogen-activated protein kinase kinase 1 (Homo sapiens) (UniProt Q02750); experiment: activity of MEK1(h) at 1.0 µM in the Eurofins Kinase panel; conditions: Compound concentration 1.0 uM
[29] = biological target: Tau-tubulin kinase 2 (Homo sapiens) (UniProt Q6IQ55); experiment: activity of TTBK2(h) at 1.0 µM in the Eurofins Kinase panel; conditions: Compound concentration 1.0 uM
[30] = biological target: Dual specificity protein kinase CLK3 (Homo sapiens) (UniProt P49761); experiment: activity of CLK3(h) at 1.0 µM in the Eurofins Kinase panel; conditions: Compound concentration 1.0 uM
[31] = biological target: Inhibitor of nuclear factor kappa-B kinase subunit alpha (Homo sapiens) (UniProt O15111); experiment: activity of IKKalpha(h) at 1.0 µM in the Eurofins Kinase panel; conditions: Compound concentration 1.0 uM
[32] = biological target: Tyrosine-protein kinase ABL2 (Homo sapiens) (UniProt P42684); experiment: activity of Arg(h) at 1.0 µM in the Eurofins Kinase panel; conditions: Compound concentration 1.0 uM
[33] = biological target: Cyclin-G-associated kinase (Homo sapiens, UniProt O14976); experiment: Promega NanoBRET (GAK)
[34] = biological target: SRSF protein kinase 1 (Homo sapiens) (UniProt Q96SB4); experiment: activity of SRPK1(h) at 1.0 µM in the Eurofins Kinase panel; conditions: Compound concentration 1.0 uM
[35] = biological target: Bone morphogenetic protein receptor type-2 (Homo sapiens) (UniProt Q13873); experiment: activity of BMPR2(h) at 1.0 µM in the Eurofins Kinase panel; conditions: Compound concentration 1.0 uM
[36] = biological target: Serine/threonine-protein kinase PLK1 (Homo sapiens) (UniProt P53350); experiment: activity of Plk1(h) at 1.0 µM in the Eurofins Kinase panel; conditions: Compound concentration 1.0 uM
[37] = biological target: Homeodomain-interacting protein kinase 4 (Homo sapiens, UniProt Q8NE63); experiment: Promega NanoBRET (HIPK4)
[38] = biological target: Cyclin-dependent kinase 5/CDK5 activator 1 (Homo sapiens) (UniProt Q00535+Q15078); experiment: activity of CDK5/p35(h) at 1.0 µM in the Eurofins Kinase panel; format: protein-complex assay; conditions: Compound concentration 1.0 uM

Sequence of SRSF protein kinase 1 (Homo sapiens) (Q96SB4 whole entry): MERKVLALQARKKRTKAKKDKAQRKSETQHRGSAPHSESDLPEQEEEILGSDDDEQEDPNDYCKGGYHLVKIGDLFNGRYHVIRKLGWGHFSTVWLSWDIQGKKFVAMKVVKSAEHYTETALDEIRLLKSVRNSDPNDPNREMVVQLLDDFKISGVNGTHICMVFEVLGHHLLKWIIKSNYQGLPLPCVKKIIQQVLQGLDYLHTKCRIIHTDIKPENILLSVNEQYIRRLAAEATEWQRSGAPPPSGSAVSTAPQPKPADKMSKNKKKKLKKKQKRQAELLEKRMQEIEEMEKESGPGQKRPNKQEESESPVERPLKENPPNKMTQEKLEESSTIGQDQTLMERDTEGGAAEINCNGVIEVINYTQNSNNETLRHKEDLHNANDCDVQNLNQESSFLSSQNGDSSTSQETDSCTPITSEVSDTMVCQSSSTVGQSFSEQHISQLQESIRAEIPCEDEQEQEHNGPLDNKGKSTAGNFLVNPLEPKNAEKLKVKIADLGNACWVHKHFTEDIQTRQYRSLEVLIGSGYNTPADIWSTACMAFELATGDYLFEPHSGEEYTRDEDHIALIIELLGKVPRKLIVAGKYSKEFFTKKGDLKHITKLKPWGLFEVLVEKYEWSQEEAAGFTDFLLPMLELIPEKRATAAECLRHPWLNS
Sequence of Tau-tubulin kinase 2 (Homo sapiens) (Q6IQ55 whole entry): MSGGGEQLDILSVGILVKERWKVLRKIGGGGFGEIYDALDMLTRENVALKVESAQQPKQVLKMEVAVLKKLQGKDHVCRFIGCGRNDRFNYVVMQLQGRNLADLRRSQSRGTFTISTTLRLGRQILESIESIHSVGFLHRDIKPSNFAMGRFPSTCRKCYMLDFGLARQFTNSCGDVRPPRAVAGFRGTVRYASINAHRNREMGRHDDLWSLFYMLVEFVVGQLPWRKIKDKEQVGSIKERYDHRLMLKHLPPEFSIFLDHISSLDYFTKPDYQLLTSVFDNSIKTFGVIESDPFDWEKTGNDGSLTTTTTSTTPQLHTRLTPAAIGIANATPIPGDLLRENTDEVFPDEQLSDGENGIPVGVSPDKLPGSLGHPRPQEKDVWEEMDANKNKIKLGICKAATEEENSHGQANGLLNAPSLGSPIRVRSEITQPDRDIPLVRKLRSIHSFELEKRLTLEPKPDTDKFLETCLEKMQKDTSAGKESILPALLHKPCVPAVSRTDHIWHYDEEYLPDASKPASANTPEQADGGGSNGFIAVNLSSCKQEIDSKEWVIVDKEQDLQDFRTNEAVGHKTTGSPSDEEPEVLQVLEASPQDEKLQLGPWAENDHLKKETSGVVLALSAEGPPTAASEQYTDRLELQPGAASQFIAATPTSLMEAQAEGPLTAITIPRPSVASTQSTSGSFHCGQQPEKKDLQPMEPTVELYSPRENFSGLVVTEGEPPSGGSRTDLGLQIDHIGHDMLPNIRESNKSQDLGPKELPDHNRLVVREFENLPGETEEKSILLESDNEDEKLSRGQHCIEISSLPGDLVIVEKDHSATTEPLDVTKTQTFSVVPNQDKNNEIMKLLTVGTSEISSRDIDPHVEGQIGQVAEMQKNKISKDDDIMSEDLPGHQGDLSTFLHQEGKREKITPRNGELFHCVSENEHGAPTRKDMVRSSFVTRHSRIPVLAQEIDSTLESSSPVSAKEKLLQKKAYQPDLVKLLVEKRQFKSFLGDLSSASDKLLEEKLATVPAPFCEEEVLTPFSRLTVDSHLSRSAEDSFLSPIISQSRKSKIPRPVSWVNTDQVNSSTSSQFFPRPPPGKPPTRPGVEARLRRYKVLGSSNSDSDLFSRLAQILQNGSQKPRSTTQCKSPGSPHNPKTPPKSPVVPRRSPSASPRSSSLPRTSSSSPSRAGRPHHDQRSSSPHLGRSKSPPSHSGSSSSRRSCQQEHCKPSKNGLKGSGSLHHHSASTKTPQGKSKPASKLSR
Sequence of Serine/threonine-protein kinase tousled-like 1 (Homo sapiens) (Q9UKI8 whole entry): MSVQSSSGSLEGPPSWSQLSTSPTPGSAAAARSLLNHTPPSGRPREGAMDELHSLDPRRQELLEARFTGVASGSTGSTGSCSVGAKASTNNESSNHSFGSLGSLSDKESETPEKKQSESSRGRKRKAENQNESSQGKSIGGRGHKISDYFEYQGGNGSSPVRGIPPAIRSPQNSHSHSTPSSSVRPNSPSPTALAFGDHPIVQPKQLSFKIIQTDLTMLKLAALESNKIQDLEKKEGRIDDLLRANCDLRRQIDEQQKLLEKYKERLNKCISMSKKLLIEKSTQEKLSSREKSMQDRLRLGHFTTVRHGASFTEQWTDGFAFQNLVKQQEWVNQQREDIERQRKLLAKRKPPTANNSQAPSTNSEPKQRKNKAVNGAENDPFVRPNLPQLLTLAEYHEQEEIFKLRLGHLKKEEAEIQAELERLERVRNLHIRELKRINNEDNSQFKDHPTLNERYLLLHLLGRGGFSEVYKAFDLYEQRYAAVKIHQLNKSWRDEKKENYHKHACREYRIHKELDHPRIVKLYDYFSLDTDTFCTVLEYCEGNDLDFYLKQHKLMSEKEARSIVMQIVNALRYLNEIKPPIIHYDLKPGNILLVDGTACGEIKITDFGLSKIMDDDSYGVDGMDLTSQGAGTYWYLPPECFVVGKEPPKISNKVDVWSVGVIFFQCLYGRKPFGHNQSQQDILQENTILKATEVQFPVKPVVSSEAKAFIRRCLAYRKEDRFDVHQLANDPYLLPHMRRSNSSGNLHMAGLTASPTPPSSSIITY
Sequence of Dual specificity protein kinase CLK3 (Homo sapiens) (P49761 whole entry, looked up): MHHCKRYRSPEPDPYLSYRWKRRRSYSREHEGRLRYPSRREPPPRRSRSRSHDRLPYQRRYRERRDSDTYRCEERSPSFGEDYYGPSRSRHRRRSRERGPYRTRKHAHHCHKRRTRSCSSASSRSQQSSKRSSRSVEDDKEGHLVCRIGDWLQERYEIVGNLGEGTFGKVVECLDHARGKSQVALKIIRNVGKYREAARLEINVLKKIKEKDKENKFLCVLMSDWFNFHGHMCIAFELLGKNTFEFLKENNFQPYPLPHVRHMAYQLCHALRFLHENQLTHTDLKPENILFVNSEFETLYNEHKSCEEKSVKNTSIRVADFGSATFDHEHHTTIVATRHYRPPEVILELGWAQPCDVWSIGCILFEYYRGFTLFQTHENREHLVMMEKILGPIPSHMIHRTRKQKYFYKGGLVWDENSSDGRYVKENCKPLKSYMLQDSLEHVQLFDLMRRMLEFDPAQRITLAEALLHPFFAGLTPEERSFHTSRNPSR
Sequence of Angiopoietin-1 receptor (Homo sapiens) (Q02763 whole entry, the tested form may be a part): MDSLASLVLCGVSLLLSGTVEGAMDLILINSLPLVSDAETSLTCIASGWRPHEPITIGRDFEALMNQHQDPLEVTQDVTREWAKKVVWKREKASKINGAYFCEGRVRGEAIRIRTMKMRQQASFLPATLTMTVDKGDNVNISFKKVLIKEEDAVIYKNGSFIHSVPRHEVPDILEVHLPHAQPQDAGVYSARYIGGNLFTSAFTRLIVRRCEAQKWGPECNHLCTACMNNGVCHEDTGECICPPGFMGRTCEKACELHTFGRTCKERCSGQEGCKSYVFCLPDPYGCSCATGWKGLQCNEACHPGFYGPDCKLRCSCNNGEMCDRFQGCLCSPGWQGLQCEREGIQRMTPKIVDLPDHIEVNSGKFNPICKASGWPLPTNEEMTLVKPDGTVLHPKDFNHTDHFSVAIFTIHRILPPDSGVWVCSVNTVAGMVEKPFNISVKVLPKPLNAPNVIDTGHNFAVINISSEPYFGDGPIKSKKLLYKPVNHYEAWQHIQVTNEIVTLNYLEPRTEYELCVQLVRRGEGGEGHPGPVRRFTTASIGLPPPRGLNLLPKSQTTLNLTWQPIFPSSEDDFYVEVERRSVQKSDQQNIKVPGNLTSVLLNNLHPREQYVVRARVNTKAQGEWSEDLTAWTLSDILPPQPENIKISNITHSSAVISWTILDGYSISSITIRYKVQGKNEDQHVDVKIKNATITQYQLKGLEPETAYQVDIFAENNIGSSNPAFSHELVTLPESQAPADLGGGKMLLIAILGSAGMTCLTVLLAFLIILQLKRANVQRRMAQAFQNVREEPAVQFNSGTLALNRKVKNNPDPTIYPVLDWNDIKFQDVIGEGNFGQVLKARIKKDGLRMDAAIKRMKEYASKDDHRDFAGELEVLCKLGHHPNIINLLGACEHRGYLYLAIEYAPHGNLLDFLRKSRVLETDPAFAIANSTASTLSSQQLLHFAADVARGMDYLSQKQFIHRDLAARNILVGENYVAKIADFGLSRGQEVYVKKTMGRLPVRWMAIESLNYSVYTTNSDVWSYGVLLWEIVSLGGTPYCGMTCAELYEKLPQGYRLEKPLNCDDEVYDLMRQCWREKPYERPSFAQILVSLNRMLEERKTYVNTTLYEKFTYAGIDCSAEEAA
Sequence of Death-associated protein kinase 2 (Homo sapiens) (Q9UIK4 whole entry, looked up): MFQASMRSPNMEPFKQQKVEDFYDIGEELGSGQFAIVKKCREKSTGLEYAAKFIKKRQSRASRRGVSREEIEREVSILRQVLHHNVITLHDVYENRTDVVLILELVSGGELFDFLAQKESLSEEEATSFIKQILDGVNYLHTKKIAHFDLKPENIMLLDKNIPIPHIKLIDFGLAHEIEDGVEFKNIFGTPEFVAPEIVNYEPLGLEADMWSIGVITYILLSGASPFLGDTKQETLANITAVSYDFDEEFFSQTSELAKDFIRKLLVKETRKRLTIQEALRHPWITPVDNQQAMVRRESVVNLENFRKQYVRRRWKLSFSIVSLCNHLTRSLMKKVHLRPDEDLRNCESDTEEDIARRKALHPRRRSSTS
Sequence of Testis-specific serine/threonine-protein kinase 4 (Homo sapiens) (Q6SA08 whole entry): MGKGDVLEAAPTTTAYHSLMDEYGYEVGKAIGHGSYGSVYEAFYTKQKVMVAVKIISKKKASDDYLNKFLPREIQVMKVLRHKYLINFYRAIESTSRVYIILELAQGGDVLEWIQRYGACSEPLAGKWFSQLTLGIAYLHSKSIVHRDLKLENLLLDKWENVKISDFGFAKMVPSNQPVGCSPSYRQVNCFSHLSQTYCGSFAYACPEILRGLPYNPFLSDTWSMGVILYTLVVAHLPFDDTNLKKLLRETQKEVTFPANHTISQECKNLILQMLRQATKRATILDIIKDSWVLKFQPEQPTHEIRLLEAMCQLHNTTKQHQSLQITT

## Cc1cc2c(-c3ccc(NC(=O)[C@H](N)CC(C)(C)C)cc3C)ccnc2[nH]1
[1]
  activity: 84%
[2]
  activity: 102%
[3]
  activity: 87%
[4]
  activity: 79%
[5]
  activity: 115%
[6]
  activity: 109%
[7]
  activity: 105%
[8]
  activity: 110%
[9]
  activity: 117%
[10]
  activity: 115%
[11]
  activity: 97%
[12]
  activity: 87%
[13]
  activity: 109%
[14]
  activity: 82%
[15]
  activity: 105%
[16]
  activity: 86%
[17]
  activity: 92%
[18]
  activity: 80%
[19]
  activity: 89%
[20]
  activity: 99%
[21]
  activity: 102%
[22]
  activity: 80%
[23]
  activity: 85%
Aurora kinase B
  activity: 109%
[24]
  activity: 103%
[25]
  activity: 101%
[26]
  activity: 78%
[27]
  activity: 91%
[28]
  activity: 101%
[29]
  activity: 94%
[30]
  activity: 107%
[31]
  activity: 98%
[32]
  activity: 72%
[33]
  IC50: > 10 µM (not active)
[34]
  activity: 95%
[35]
  activity: 85%
[36]
  activity: 111%
[37]
  IC50: > 10 µM (not active)
[38]
  activity: 79%
